Results as given in paper PMC3776131 (Bioorganic & medicinal chemistry letters, 2013).
Like-named read-outs stand apart in the source and are kept apart here. Where a SMILES comes first, the peptide text is derived from it. [ ]: non-standard residue; d: D form. Dmt = Cc1cc(O)cc(C)c1C[C@H](N)C(=O)O; Tic = O=C(O)[C@@H]1Cc2ccccc2CN1

Tests used:
μ and κ receptor [1] = experiment: guinea pig ileum
μ opioid receptors [2] = target: T1, μ opioid receptors (Rattus norvegicus, UniProt P33535); experiment: μ opioid receptor binding, displacement of [3H]DAMGO from rat brain membranes; details: relative to 4a
T1 sequence (P33535 whole entry): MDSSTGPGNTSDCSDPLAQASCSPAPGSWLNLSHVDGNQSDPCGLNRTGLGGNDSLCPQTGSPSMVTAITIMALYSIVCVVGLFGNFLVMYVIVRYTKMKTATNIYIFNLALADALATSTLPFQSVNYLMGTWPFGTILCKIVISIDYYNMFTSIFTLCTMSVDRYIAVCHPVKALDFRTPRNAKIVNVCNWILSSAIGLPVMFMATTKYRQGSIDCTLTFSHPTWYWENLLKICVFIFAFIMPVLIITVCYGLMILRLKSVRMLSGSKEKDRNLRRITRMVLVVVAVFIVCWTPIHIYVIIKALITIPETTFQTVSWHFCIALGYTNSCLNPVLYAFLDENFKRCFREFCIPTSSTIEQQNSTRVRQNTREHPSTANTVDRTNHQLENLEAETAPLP

δ receptor [3] = target: T2, δ receptor (Mus musculus, UniProt P32300); experiment: mouse vas deferens
T2 sequence (P32300 whole entry): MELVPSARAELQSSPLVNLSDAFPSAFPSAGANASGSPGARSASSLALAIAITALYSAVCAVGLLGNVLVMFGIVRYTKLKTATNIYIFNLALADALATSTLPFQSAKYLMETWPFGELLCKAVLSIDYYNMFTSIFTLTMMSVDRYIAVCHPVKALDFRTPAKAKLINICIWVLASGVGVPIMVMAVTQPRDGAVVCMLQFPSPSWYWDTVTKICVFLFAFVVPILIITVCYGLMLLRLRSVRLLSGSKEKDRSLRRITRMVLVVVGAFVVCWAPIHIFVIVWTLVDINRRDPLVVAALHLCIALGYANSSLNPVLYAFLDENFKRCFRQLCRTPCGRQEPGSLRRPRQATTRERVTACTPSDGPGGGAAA

μ and κ receptor [4] = details: cited from earlier work
[5] = given i.c.v.; cited from earlier work
δ receptor [6] = target: T2, δ receptor; details: cited from earlier work
[7] = cited from earlier work
μ opioid receptors [8] = target: T1, μ opioid receptors; details: read-out: Ki^μ; [3H]DAMGO, rat brain membranes; cited from earlier work
κ opioid receptor = κ opioid receptor (Cavia porcellus, UniProt P41144); details: read-out: Ki^κ; [3H]U69,593, guinea pig brain membranes; cited from earlier work
Sequence of κ opioid receptor (P41144 whole entry): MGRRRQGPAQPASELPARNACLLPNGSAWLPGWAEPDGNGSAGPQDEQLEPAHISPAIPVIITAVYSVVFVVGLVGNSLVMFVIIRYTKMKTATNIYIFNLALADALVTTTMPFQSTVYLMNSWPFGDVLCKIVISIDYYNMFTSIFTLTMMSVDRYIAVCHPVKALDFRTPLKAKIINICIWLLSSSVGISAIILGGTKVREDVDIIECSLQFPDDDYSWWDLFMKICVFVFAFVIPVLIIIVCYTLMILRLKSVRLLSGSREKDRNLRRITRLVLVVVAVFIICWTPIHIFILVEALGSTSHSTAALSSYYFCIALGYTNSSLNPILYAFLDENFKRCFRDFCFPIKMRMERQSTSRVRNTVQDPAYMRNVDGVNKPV

Compound	MVD Ke (δ antagonist activity) (δ receptor [6]) [nM]	GPI IC50 (agonist potency) (μ and κ receptor [4])	type of activity in the MVD assay (δ receptor [6])	also measured
Cc1cc(O)cc(C)c1C[C@H](N)C(=O)N1Cc2ccccc2C[C@H]1C(=O)N[C@@H](CCCCN)C(=O)N[C@@H](Cc1ccccc1)C(N)=O [Compound 6a, H-Dmt-Tic-Lys-Phe-NH2] (HELM PEPTIDE1{[Cc1cc(O)cc(C)c1C[C@H](N)C(=O)[*:2]].[Tic].K.F.[am]}$$$$V2.0)				type of activity in the GPI assay (μ and κ receptor [1]): μ agonist; fold lower μ receptor affinity than 4a (μ opioid receptors [2]): 16 fold; Kb (δ receptor [3]): 2.18 ± 0.3 nM; type of activity in the MVD assay (δ receptor [3]): δ antagonist
H-Dmt-Ticψ[CH2NH]Phe-Phe-NH2 [Compound 5a]	0.537 ± 0.026			IC50 (μ and κ receptor [4]; read-out: GPI IC50 (agonist potency)): 7.71 ± 0.31 nM; analgesic effect in the rat tail flick test [5]: potent analgesic effect; physical dependence upon chronic administration [7]: no physical dependence; analgesic tolerance upon chronic administration ([7]; compared with morphine): less analgesic tolerance than morphine
H-Tyr-Ticψ[CH2NH]Phe-Phe-OH [Compound 3a]		inactive	potent δ antagonists	
H-Y[Tic]FF-OH [Compound 1a]		inactive	potent δ antagonists	
H-[Dmt]-[Tic]-OH [Compound 8a]		Inactive		Ki (μ opioid receptors [8]): 1360 ± 160 nM; Ki (κ opioid receptor): > 1000 nM
H-[Dmt][Tic]FF-NH2 [Compound 4a]	0.209 ± 0.037			
H-[Dmt][Tic]FF-OH [Compound 2a]	0.196 ± 0.008	inactive	potent δ antagonists	
